Experimental data: patent US20230115176A1 (Ra Pharmaceuticals, Inc., priority 2019, published 2023)
≈ marks a conversion by molar mass, not a printed value.

Columns and labels:
Human C5 = biological target: T1, Human C5 (Homo sapiens, UniProt P01031); test: Red blood cell (RBC) hemolysis assay, luminescent (Example 13, Table 22); type: cell-based; conditions: sheep EA cells, […] C5-depleted human serum, 0.5 nM human C5, 1 hour 37° C., luminescence; further: 1.5% C5-depleted human serum
T1 construct: purchased Complement Technology
Excerpt: Compound CU0136 is a racemic mixture of Compound CU0186 and CU0187. Numbers in parenthesis following compound numbers indicate alternate enantiomers (as distinguished by retention time during chromatographical separation).

[1] = Kinetic solubility in PBS pH 7.4, HPLC-UV (Example 21, Table 27); type: physicochemical; conditions: phosphate buffered saline, aqueous buffer, kinetic from dmso stock, 0.5 M PBS, shaken minimum 24 h at approximately 25° C., HPLC-UV 270 nm
Description: Compounds were analyzed for kinetic solubility values using a standard kinetic solubility assay format. First, test compounds were dissolved in DMSO (Aldrich Chemical Co., Milwaukee, Wis., USA) at a concentration of 0.010 mol/L and used to prepare standard calibrators in DMSO solution. 500.0 μM, 250.0 μM, 125.0 μM, 62.5 μM, 31.2 μM, and 15.6 μM standards were prepared in a Greiner UV-Star clear V-bottom 96-well plate (Greiner-Bio One, Germany) for generating a standard curve. Using Alfa Aesar's Sodium phosphate, 0.2 M buffer solution, pH 7.4 (Alfa Aesar, Haverhill, Mass., USA), aqueous phosphate buffered saline (PBS) was prepared by diluting with Milli-Q water for a final concentration of 0.05 M. The pH of the solution was adjusted to 7.4±0.1 using 0.1 M hydrochloric acid (Fisher Scientific Waltham, Mass., USA) or 0.1 M aqueous sodium hydroxide (Fisher Scientific Waltham, Mass., USA).
10 μL of 0.010 mol/L DMSO test compound stock solutions were pipetted to separate 1.5 mL centrifuge tubes in triplicate. To these tubes, 190 μl of 0.05 M PBS was added. Each tube was gently vortexed for 5 sec. The tubes were shaken for a minimum of 24 h at approximately 25° C. After shaking, the solutions were transferred to 0.5 mL centrifuge filter tubes (MilliporeSigma, Burlington, Mass., USA) and centrifuged at 10,000 rpm for 5 min. After centrifugation, supernatants were collected and used for compound concentration analysis.
Compound concentrations in each solution were determined using high pressure liquid chromatography (HPLC) with ultraviolet (UV) detection and comparison with external standards. For HPLC, a Waters Acquity CSH Phenyl-Hexyl column (2.1 mm×50 mm, 1.7 μm) was used together with a generic gradient method on a Waters H-class system equipped with a diode array detector: Solvent A=0.1% formic acid in water, Solvent B=0.1% formic acid in acetonitrile (MilliporeSigma, Burlington, Mass., USA), flow=0.65 mL/min, (t=0 min: 95% A-5% B, t=4.75 min: 0% A-100% B, t=4.85 min: 0% A-100% B, t=4.86 min: 95% A-5% B, t=5 min: 95% A-5% B). UV quantifications were performed at 270 nm. Solution concentrations were calculated using Microsoft Excel.

purified human C5 = purified human C5 (Homo sapiens, UniProt P01031); test: Red blood cell (RBC) hemolysis assay, optical, absorbance 412 nm (Example 10, Table 19); type: cell-based; conditions: antibody-sensitized sheep erythrocytes, […] human C5 depleted sera, 0.5 nM purified human C5, absorbance 412 nm; read-out: RBC Hemolysis IC50
Chain of purified human C5 (P01031 19-1676): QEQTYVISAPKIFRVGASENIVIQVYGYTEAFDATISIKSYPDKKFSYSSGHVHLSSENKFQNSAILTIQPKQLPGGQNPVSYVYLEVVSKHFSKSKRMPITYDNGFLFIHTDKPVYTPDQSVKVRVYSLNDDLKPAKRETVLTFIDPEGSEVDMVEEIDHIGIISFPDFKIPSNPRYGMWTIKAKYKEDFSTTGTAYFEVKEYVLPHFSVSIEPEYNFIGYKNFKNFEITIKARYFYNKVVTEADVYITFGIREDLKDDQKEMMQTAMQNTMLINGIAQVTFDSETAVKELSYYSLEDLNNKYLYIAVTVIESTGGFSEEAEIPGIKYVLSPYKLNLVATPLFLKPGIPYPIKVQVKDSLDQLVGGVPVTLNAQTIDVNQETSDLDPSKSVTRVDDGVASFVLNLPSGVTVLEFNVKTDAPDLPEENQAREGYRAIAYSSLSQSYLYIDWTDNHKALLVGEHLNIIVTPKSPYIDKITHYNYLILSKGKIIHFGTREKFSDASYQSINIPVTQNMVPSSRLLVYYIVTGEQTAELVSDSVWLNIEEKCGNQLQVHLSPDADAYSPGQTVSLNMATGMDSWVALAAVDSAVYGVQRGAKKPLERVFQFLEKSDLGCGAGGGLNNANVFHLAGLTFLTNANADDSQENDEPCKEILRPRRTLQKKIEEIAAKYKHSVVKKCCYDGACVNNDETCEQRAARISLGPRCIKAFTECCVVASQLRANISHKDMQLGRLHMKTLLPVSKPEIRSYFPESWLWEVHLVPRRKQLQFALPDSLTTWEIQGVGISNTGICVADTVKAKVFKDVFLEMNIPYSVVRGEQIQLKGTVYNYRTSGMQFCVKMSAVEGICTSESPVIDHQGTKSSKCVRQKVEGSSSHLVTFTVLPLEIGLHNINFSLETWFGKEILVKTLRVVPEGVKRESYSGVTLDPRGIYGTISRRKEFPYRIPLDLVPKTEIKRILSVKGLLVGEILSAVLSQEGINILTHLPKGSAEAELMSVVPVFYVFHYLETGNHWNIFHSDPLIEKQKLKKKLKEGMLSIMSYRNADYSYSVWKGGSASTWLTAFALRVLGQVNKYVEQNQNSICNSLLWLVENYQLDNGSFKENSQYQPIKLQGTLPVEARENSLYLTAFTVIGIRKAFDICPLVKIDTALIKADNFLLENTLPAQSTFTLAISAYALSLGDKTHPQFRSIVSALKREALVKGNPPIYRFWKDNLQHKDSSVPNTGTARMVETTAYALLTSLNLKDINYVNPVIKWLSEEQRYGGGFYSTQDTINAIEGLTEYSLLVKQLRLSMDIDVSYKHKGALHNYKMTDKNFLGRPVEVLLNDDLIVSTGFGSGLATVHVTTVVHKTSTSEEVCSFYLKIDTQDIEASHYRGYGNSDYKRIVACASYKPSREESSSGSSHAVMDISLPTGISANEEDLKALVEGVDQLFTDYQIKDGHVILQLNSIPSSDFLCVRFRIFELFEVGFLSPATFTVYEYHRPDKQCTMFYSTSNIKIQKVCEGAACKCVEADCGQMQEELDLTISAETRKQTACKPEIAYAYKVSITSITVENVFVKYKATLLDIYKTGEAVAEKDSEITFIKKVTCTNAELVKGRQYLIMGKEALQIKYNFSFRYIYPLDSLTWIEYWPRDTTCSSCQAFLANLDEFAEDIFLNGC

T1 sequence (P01031 19-1676): as above

SMILES | solubility kinetic [1] [µM] | IC50 (Human C5) [nM] | IC50 (purified human C5) [nM]
CCCCCOc1cc(N2CCCN(Cc3ccc(CC(=O)N(C)C4CCN(CC)C4)cc3OC)C2=O)ccc1OC (stereo not drawn) [CU0177] | 351 (≈ 204 µg/mL) | 21.1 | 
COc1ccc(NC(=O)NCc2cccc3ccsc23)cc1OCCCC(C)C [Compound C5INH-0294] |  |  | 343
CNC(=O)c1cccc(CNC(=O)Nc2ccc(OC)c(OCCCC(C)C)c2)c1 [Compound C5INH-0319] |  |  | 793
COc1ccc(N)cc1CNC(=O)Nc1ccc(OC)c(OCCCC(C)C)c1 [Compound C5INH-0321] |  |  | 61
COc1ccc(NC(=O)NCc2ccc(CN3CCN(C)CC3)cc2)cc1OCCCC(C)C [Compound C5INH-0324] |  |  | 551
COc1ccc(NC(=O)NCc2ccnc3c2ccn3CCN2CCOCC2)cc1OCCCC(C)C [Compound C5INH-0370] |  |  | 209
COc1ccc(NC(=O)N2CCCC2c2ccccc2OC)cc1OCCCC(C)C (stereo not drawn) [Compound C5INH-0371] |  |  | 67.6
COc1ccc(NC(=O)NCc2ccnc3c2ccn3CCC(=O)O)cc1OCCCC(C)C [Compound C5INH-0399] |  |  | 619
COc1ccc(NC(=O)NCc2ccnc3c2ccn3CCN2CCCS2(=O)=O)cc1OCCCC(C)C [Compound C5INH-0411] |  |  | 618
COc1ccc(NC(=O)NCc2cccc3cn[nH]c23)cc1OCCCC(C)C [Compound C5INH-0448] |  |  | 4290
COc1ccc(OCCCC(C)C)cc1NC(=O)NC(CO)c1ccccc1 (stereo not drawn) [Compound C5INH-0487] |  |  | 824
COc1ccc(NC(=O)NCc2ccnc3c2ccn3CC(=O)N2CCCCC2)cc1OCCCC(C)C [Compound C5INH-0507] |  |  | 185
COc1ccc(NC(=O)NCc2ccnc3c2ccn3CC(=O)N2CCOCC2)cc1OCCCC(C)C [Compound C5INH-0508] |  |  | 72
COc1cc(CNC(=O)C(C)(C)C)c(NC(=O)NCc2ccnc3[nH]ccc23)cc1OCCCC(C)C [Compound C5INH-0509] |  |  | 286
COc1cc(CNC(=O)c2ccccc2)c(NC(=O)NCc2ccnc3[nH]ccc23)cc1OCCCC(C)C [Compound C5INH-0510] |  |  | 119
COc1ccc(NC(=O)NC(C(=O)NO)c2cccc(OC)c2O)cc1OCCCC(C)C (stereo not drawn) [Compound C5INH-0512] |  |  | 41.5
COc1ccc(NC(=O)Nc2ccc3cc[nH]c3c2)cc1OCCCC(C)C [Compound C5INH-0513] |  |  | 3320
COc1ccc(NC(=O)NCc2c(F)cnc3c2ccn3CC(=O)N(C)C)cc1OCCCC(C)C [Compound C5INH-0515] |  |  | 1600
COc1ccc(NC(=O)NCc2ccnc(NCCCN(C)C)c2OC)cc1OCCCC(C)C [Compound C5INH-0532] |  |  | 218
COc1ccc(NC(=O)CN2CCOCC2)cc1CNC(=O)Nc1ccc(OC)c(OCCCC(C)C)c1 [Compound C5INH-0533] |  |  | 671
COc1ccc(NC(=O)NCc2ccnc3c2ccn3Cc2ccncc2)cc1OCCCC(C)C [Compound C5INH-0540] |  |  | 432
COc1ccc(NC(=O)NCc2cccc3c2OCCO3)cc1OCCCC(C)C [Compound C5INH-0543] |  |  | 373

More lines, main results first:

solubility kinetic [1] [µM] | SMILES | IC50 (Human C5) [nM] | IC50 (purified human C5) [nM]
77 (≈ 41.3 µg/mL) | CCCCCOc1cc(N2CCCN(Cc3ccc(CNC(=O)c4cocn4)cc3OC)C2=O)ccc1OC [CU0161] | 22.9 | 
435 (≈ 275 µg/mL) | COc1cc(CC(=O)N2CCOC(CN(C)C)C2)ccc1CN1CCCN(c2ccc(OC)c(OCCCC(C)(F)F)c2)C1=O (stereo not drawn) [CU0170] | 20.1 | 
368 (≈ 213 µg/mL) | CCCCCOc1cc(N2CCCN(Cc3ccc(CC(=O)N4CCN=C(N(C)C)C4)cc3OC)C2=O)ccc1OC [CU0173] | 11.4 | 
486 (≈ 308 µg/mL) | CCC(F)(F)CCOc1cc(N2CCCN(Cc3ccc(CC(=O)N4CCOC(CN(C)C)C4)cc3OC)C2=O)ccc1OC (stereo not drawn) [CU0175] | 28.1 | 
423 (≈ 228 µg/mL) | CCCCCOc1cc(N2CCCN(Cc3ccc(CCN4CCN(C)CC4)cc3OC)C2=O)ccc1OC [CU0178] | 26.7 | 
73 (≈ 34.3 µg/mL) | CCCCCOc1cc(N2CCCN(Cc3ccc(CC(N)=O)cc3OC)C2=O)ccc1OC [CU0188] | 19.9 | 
139 (≈ 74.7 µg/mL) | CCCCCOc1cc(N2CCCN(Cc3ccc(CCN4CCCCC4=O)cc3OC)C2=O)ccc1OC [CU0190] | 41.4 | 
> 500 | CCCCCOc1cc(N2CCCN(Cc3ccc(CC(=O)N4CCO[C@H](COC)C4)cc3OC)C2=O)ccc1OC [CU0196] | 21.1 | 
389 (≈ 172 µg/mL) | CCCCCOc1cc(N2CCCN(Cc3ccc(CN)cc3OC)C2=O)ccc1OC [CU0201] | 7.4 | 
415 (≈ 262 µg/mL) | CCC(F)(F)CCOc1cc(N2CCCN(Cc3ccc(CC(=O)NC4CCN(C(C)C)CC4)cc3OC)C2=O)ccc1OC [CU0207] | 13.1 | 
112 (≈ 57 µg/mL) | CCCCCOc1cc(N2CCCN(Cc3ccc(Cc4nnnn4C)cc3OC)C2=O)ccc1OC [CU0211] | 15.6 | 
52 (≈ 26.4 µg/mL) | CCCCCOc1cc(N2CCCN(Cc3ccc(Cc4nnn(C)n4)cc3OC)C2=O)ccc1OC [CU0212] | 23.6 | 
17 (≈ 9.35 µg/mL) | COc1cc(CC(=O)N(C)C)ccc1CN1CCCN(c2ccc(OC)c(OCC[C@@H]3C[C@@H]4CC[C@H]3C4)c2)C1=O [CU0213] | 20.4 | 
209 (≈ 123 µg/mL) | COc1cc(CC(=O)N(C)C)ccc1CN1CCCN(c2ccc(OC)c(OCCCC(F)(F)C(F)(F)F)c2)C1=O [CU0214] | 21.1 | 
466 (≈ 272 µg/mL) | CCCCCOc1cc(N2CCCN(Cc3ccc(CC(=O)N4CCO[C@@H](COC)C4)cc3OC)C2=O)ccc1OC [CU0224] | 15.4 | 
333 (≈ 196 µg/mL) | CCCCCOc1cc(N2CCCN(Cc3cccc4c3ccn4CC(=O)N3CCN=C(N(C)C)C3)C2=O)ccc1OC [CU0239] | 11.2 | 
< 10 | CCCCCOc1cc(N2CCCN(Cc3cccc4c3ccn4CC(=O)NC3CNC(=O)C3)C2=O)ccc1OC (stereo not drawn) [CU0243] | 5.5 | 
200 (≈ 115 µg/mL) | CCCCCOc1cc(N2CCCN(Cc3cccc4c3ccn4CC(=O)NC3CCNC(=O)C3)C2=O)ccc1OC (stereo not drawn) [CU0244] | 6.7 | 
142 (≈ 77.9 µg/mL) | CCCCCOc1cc(N2CCCN(Cc3cccc4c3ccn4CC(=O)NC3(C)COC3)C2=O)ccc1OC [CU0245] | 12.2 | 
287 (≈ 165 µg/mL) | CCCCCOc1cc(N2CCCN(Cc3cccc4c3ccn4CC(=O)N3CCN(C)C(=O)C3)C2=O)ccc1OC [CU0246] | 10.6 | 
376 (≈ 228 µg/mL) | CCCCCOc1cc(N2CCCN(Cc3cccc4c3ccn4CC(=O)N3CCOC(CN(C)C)C3)C2=O)ccc1OC (stereo not drawn) [CU0247] | 9.8 | 
436 (≈ 264 µg/mL) | CCCCCOc1cc(N2CCCN(Cc3ccnc4c3ccn4CC(=O)NC3CCN(C(C)C)CC3)C2=O)ccc1OC [CU0255] | 19.4 | 
22 (≈ 13.1 µg/mL) | COc1ccc(N2CCCN(Cc3ccnc4c3ccn4CC(=O)N(C)C)C2=O)cc1OCCCC(F)(F)C(F)(F)F [CU0256] | 62.7 | 
> 500 | CCCCCOc1cc(N2CCCN(Cc3ccnc4c3ccn4CC(=O)N(C)C3CCN(CC)C3)C2=O)ccc1OC (stereo not drawn) [CU0257] | 16 | 
462 (≈ 241 µg/mL) | CCCCCOc1cc(N2CCCN(Cc3ccnc4c3c(C)cn4CC(=O)N(C)C)C2=O)ccc1OC [CU0258] | 7.5 | 
436 (≈ 259 µg/mL) | CCCCCOc1cc(N2CCCN(Cc3ccnc4c3ccn4CC(=O)N3CCO[C@@H](COC)C3)C2=O)ccc1OC [CU0260] | 25 | 
